The nature of data set [1]: Cytotoxicity by MTT assay. Type of data set: cell-based. The note with it: human, Caco-2 cells, tested concentrations 0.05 μg/mL to 200 μg/mL, read-out: cell viability. The protocol: Cytotoxicity of DE, dabigatran etexilate-loaded single micelles (DE-SMs) and DE-CMs was investigated by the MTT assay (Zhai et al., [2013]). Caco-2 cells were supplied by KeyGEN BioTECH Co., Ltd. (Nanjing, China) and maintained in medium composite of DMEM (high glucose), 20% FBS and 1% penicillin/streptomycin solution. Cells were cultured at a density of 5 × 10^4 cells/well in 96-well plates and incubated at 37 °C under 5% CO2 for 24 h. Then, the complete medium was removed and cells were further incubated with 100 μL of complete medium containing DE, DE-SMs and DE-CMs at 37 °C for 24 h, respectively. Next, the medium was replaced with 20 μL of MTT (5 mg/mL) solution and 80 μL of fresh medium. Following 4 h of incubation, the medium containing MTT was discarded and 150 μL of DMSO was added to each well to dissolve the granular crystallization. The optical density of the samples was measured at 490 nm wavelength using a microplate ELISA analyzer (Thermo Scientific, USA) (Fan et al., [2017a]). The negative control was the group of Caco-2 cells without drugs. Cell viability was calculated as follows: (4) Cell viability (%)=(1−ODnegtive control−ODsample/ODnegtive control)×100% where ODnegative control is the optical density of the negative control group, and ODsample is the optical density of the experimental group.

On the set-up of data set [2]: method as in Chai et al., 2016. The note with it: 37 °C, ref Chai et al., 2016, cited from earlier work.
Data set [3] can be described thus: Cellular transport studies (Papp, efflux ratio). Type of data set: in vitro ADME. The note with it: human. As to the method: The Caco-2 cell monolayer is the most widespread model for cellular transport experiments to evaluate the efflux effect of P-gp (Hunter et al., [1993]). The transepithelial electrical resistance (TEER) value of Caco-2 cell monolayer model was measured using a cell resistance meter (Millicell-ERS, Millipore, USA), and models were used for transport experiments when the TEER value exceeded […] (Andrew & Cameron, [2012]).
For apical to basolateral (AP > BL) (basolateral to apical (BL > AP)) transport experiments, 1.5 mL of Hank’s Balanced Salt Solution (HBSS) loaded with DE, DE-SMs and DE-CMs (the concentration of DE in different groups was 200 μg/mL) was added to the AP side (BL side) and 2.6 mL of blank HBSS was added to the BL side (AP side), respectively. At fixed time intervals, 400 μL aliquots were taken from the BL side (AP side) with replacement of the fresh HBSS. The samples were frozen in a refrigerator at –80 °C until HPLC analysis. The HPLC method employed an ODS C18 column (250 × 4.6 mm, 5 μm, Dikma Technologies, China) and a methanol-water (75:25, v/v) mobile phase with a flow rate of 1.0 mL/min. The detection wavelength was 316 nm and the injection volume was 20 μL. The apparent permeability coefficient (Papp) and efflux ratio (ER) were calculated as follows: (5) Papp=dQ/dt/A×C0 where dQ/dt is the steady-state appearance rate of DE on the receiver side, C0 is the initial concentration of DE on the supply side, and A is the surface area of the cell monolayer. (6) ER=Papp(BL→AP)/Papp(AP→BL) where Papp(BL→AP) is the Papp value of DE transferred from the BL side to AP side, and Papp(AP→BL) is the Papp value of DE transferred from the AP side to BL side.

For data set [4] the following is noted: cited from earlier work.

Each structure is given as a SMILES string. Converted amounts (≈) assume the structure as drawn. Read-outs that look alike come from different tables or passages of the source.

The term viability denotes a per cent measure of how many cells are alive, often set against a control. A word on the solubility: it is the dissolved amount per volume that the medium holds.

For the compound `CCCCCCOC(=O)NC(=N)c1ccc(NCc2nc3cc(C(=O)N(CCC(=O)OCC)c4ccccn4)ccc3n2C)cc1` [DE, dabigatran etexilate], in data set [1], the viability at 24 h is over 80%. The results for the solubility in data set [2] (SGF) and in data set [2] (SIF) were 19245 µg/mL (≈ 30.7 mM) and 3.06 µg/mL (≈ 0.00487 mM), respectively. Also, the efflux ratio at 200 μg/mL in data set [3] (Caco-2, Papp(BL→AP)/Papp(AP→BL), read-out: ER value (efflux ratio)) is 14.2. Besides, the Papp A→B at 200 μg/mL in data set [3] (Caco-2 monolayer, DE 200 μg/mL, read-out: Papp (AP to BL)) was found to be 0.59 ± 0.055 ×10⁻⁶ cm/s. For the same compound, the Papp B→A at 200 μg/mL in data set [3] (Caco-2 monolayer, DE 200 μg/mL, read-out: Papp (BL to AP)) amounted to 8.44 ± 0.072 ×10⁻⁶ cm/s. In data set [4] (after oral administration, ref Greig & Mckeage, 2014), the absolute bioavailability result is reported as “approximately 6.5%”. For the same compound, the oral bioavailability in data set [4] (ref Wang et al., 2013) was 3–7%.

Source of the values: article PMC7269033, “A composite nanocarrier to inhibit precipitation of the weakly basic drug in the gastrointestinal tract” (Drug Delivery, 2020).
